Data set [1] deals with Human immunodeficiency virus 1. Put plainly: Antiviral activity against VSVG/wild-type HIV-1 infected in human HEK 293T cells assessed as inhibition of virus replication preincubated with cells for 15 mins prior to viral infection and measured at 48 hrs post-infection by luciferase reporter gene assay. In kind it is functional, organism-based, HEK293T. To be noted: Human immunodeficiency virus 1, HEK-293T.

For data set [2], the system named is HEK-293T. Briefly: Cytotoxicity against human HEK 293T cells assessed as reduction in cell viability measured after 48 hrs by Celltiter-glo assay. The format is cell-based. (In ATP-based viability assays light output follows the ATP content of the culture.)
For data set [3], the system named is Human immunodeficiency virus 1. Briefly: Antiviral activity against VSVG/wild-type HIV-1 infected in human HEK 293T cells assessed as viral infection at 10 uM preincubated with cells for 15 mins prior to viral infection and measured at 48 hrs post-infection by luciferase reporter gene assay. In kind it is functional, HEK293T. To be noted: time 2895 min, 48.25 h.

Data set [4] relates to HEK-293T. Put plainly: Cytotoxicity against human HEK 293T cells assessed as cell viability at 30 uM measured after 48 hrs by Celltiter-glo assay. The format is cell-based.
Data set [5] can be described thus: Selectivity index, ratio of CC50 for human HEK 293T cells to EC50 for VSVG/wild type HIV1 infected in human HEK 293T cells. The format is toxicity, cell-based. Particulars: read-out: Ratio CC50/EC50.

For `COn1cc(CC(=O)Nc2cccnc2)c2ccccc21`, the EC50 (commonly the concentration giving half of the maximal effect) in data set [1] is greater than 10 µM. In addition, the CC50 (usually the concentration that lowers cell viability or growth by half) with HEK-293T [2] was greater than 30 µM. In addition, the Activity in data set [3] stood at 118.26%; with HEK-293T [4], 78.7%.

For the molecule `CCCCOn1cc(CC(=O)Nc2ccccc2Cl)c2ccccc21`, the EC50 in data set [1] stood at 0.64 µM. Moreover, in the data set on HEK-293T [2], the CC50 was 29.1 µM. The selectivity ratio in data set [5] turned out to be 45.5.

For the molecule `COC(=O)c1cccc(NC(=O)Cc2cn(OC)c3ccccc23)c1`, the EC50 in data set [1] was greater than 10 µM. For the same molecule, the half-maximal cytotoxic concentration (CC50) with HEK-293T [2] is greater than 30 µM. In addition, the results for the Activity (in data set [3]; with HEK-293T [4]) were 109.33% and 50.46%, respectively.

Consider `CCCOn1cc(Cc2ccncc2)c2ccccc21`, for which the EC50 in data set [1] was greater than 10 µM. Also, the CC50 in the data set with HEK-293T [2] was greater than 30 µM. Besides, the Activity is listed as 99.48% in data set [3] and 69.96% in the data set on HEK-293T [4].

Consider `CCCCCCCOn1cc(CC(=O)Nc2ccccc2Cl)c2ccccc21`, for which, in data set [1], the EC50 came to 1.95 µM. For the same molecule, the CC50 in the data set with HEK-293T [2] is 23.9 µM. Moreover, the selectivity ratio in data set [5] was found to be 12.2.

For the molecule `CCCOn1cc(CC(=O)Nc2ccncn2)c2ccccc21`, in data set [1], the EC50 came to 3.3 µM. Besides, the CC50 in the data set on HEK-293T [2] came to 17.9 µM. Moreover, the selectivity ratio in data set [5] came out at 5.43.

As to `COn1cc(CC(=O)Nc2cc(C)cc(C)c2)c2ccccc21`, in data set [1], the EC50 is greater than 10 µM. In addition, in the data set with HEK-293T [2], the CC50 was greater than 30 µM. The Activity in data set [3] was 87.28%; with HEK-293T [4] it was 62.62%.

For the molecule `COn1cc(CC(=O)Nc2ccc(C)cc2)c2ccccc21`, the EC50 in data set [1] was greater than 10 µM. The CC50 with HEK-293T [2] is greater than 30 µM. The Activity was 124.35% in data set [3] and 52.47% in the data set on HEK-293T [4].

For the molecule `CCc1ccccc1NC(=O)Cc1cn(OC)c2ccccc12`, the EC50 in data set [1] is greater than 10 µM. The CC50 in the data set with HEK-293T [2] is greater than 30 µM. The Activity in data set [3] worked out at 64.33%; in the data set on HEK-293T [4], 68.5%.

Consider `COn1cc(CC(=O)Nc2ccc([N+](=O)[O-])cc2)c2ccccc21`, for which the EC50 in data set [1] was greater than 10 µM. In addition, the CC50 with HEK-293T [2] was greater than 30 µM. Moreover, the Activity in data set [3] amounted to 81.41%; in the data set on HEK-293T [4] it was 54%.

For `CCCOn1cc(Cc2c(Cl)cncc2Cl)c2ccccc21`, the EC50 in data set [1] was greater than 10 µM. In the data set on HEK-293T [2], the CC50 is greater than 30 µM. In addition, the values for the Activity (in data set [3]; in the data set with HEK-293T [4]) were 93.41% and 77.47%, respectively.

Turning to `CCOC(=O)c1ccccc1NC(=O)Cc1cn(OC)c2ccccc12`, the EC50 in data set [1] was greater than 10 µM. In the data set on HEK-293T [2], the CC50 came out at 29.1 µM. In addition, in data set [3], the Activity came to 60.76%.

Take `COC(=O)c1ccccc1NC(=O)Cc1c[nH]c2ccccc12`: the EC50 in data set [1] was greater than 10 µM. Also, the CC50 in the data set with HEK-293T [2] is greater than 30 µM. Further, the Activity in data set [3] is given as 91.98%; in the data set on HEK-293T [4], 65.5%.

`COC(=O)c1ccc(NC(=O)Cc2cn(OC)c3ccccc23)cc1`: the EC50 in data set [1] was greater than 10 µM. Further, in the data set on HEK-293T [2], the CC50 is greater than 30 µM. Besides, the Activity in data set [3] is reported as 104.33%; with HEK-293T [4], 72.64%.

`CC(=O)On1cc(CC(=O)Nc2ccccc2Cl)c2ccccc21`: in data set [1], the EC50 was greater than 10 µM. The 50% cytotoxic concentration (CC50) in the data set on HEK-293T [2] was 28.1 µM. Also, the Activity in data set [3] was determined as 146.89%.

Regarding `COn1cc(CC(=O)Nc2ccccn2)c2ccccc21`, the EC50 in data set [1] is greater than 10 µM. The CC50 with HEK-293T [2] was greater than 30 µM. In addition, the Activity in data set [3] worked out at 138.11%; in the data set with HEK-293T [4], 63.67%.

Turning to `COn1cc(CC(=O)Nc2ccc(C)c(C)c2)c2ccccc21`, the EC50 in data set [1] is greater than 10 µM. Further, the CC50 in the data set with HEK-293T [2] is greater than 30 µM. Moreover, the values for the Activity (in data set [3]; with HEK-293T [4]) were 95.02% and 51.62%, respectively.

On to `COn1cc(CC(=O)Nc2ccccc2F)c2ccccc21`, for which the EC50 in data set [1] is greater than 10 µM. Also, the CC50 in the data set on HEK-293T [2] turned out to be 28.6 µM. Moreover, in data set [3], the Activity is listed as 72.89%.

Take `COc1ccccc1NC(=O)Cc1cn(OC)c2ccccc12`: the EC50 in data set [1] was greater than 10 µM. Besides, the CC50 in the data set on HEK-293T [2] was greater than 30 µM. Moreover, the Activity was determined as 71.46% in data set [3] and 59.57% with HEK-293T [4].

Regarding `COc1cccc(NC(=O)Cc2cn(OC)c3ccccc23)c1`, in data set [1], the EC50 was greater than 10 µM. Besides, in the data set on HEK-293T [2], the 50% cytotoxic concentration (CC50) was greater than 30 µM. Also, the Activity stood at 104.29% in data set [3] and 86.68% with HEK-293T [4].

Turning to `COc1cc(NC(=O)Cc2cn(OC)c3ccccc23)cc(OC)c1OC`, the EC50 in data set [1] was greater than 10 µM. Also, the CC50 in the data set with HEK-293T [2] stood at 13.9 µM. In data set [3], the Activity is reported as 47.94%.

Regarding `COC(=O)c1ccccc1NC(=O)CCc1cn(OC)c2ccccc12`, in data set [1], the EC50 was greater than 10 µM. Further, the CC50 in the data set with HEK-293T [2] worked out at 26.8 µM. Moreover, in data set [3], the Activity came out at 74.25%.

For `COc1ccc(NC(=O)Cc2cn(OC)c3ccccc23)cc1`, the EC50 in data set [1] was greater than 10 µM. For the same molecule, the CC50 in the data set with HEK-293T [2] was greater than 30 µM. For the same molecule, the Activity in data set [3] is recorded as 128.61%; in the data set with HEK-293T [4], 86.09%.

Regarding `COc1cc(NC(=O)Cc2cn(OC)c3ccccc23)cc(OC)c1`, the EC50 in data set [1] is greater than 10 µM. Also, the CC50 in the data set on HEK-293T [2] was 21.6 µM. Besides, in data set [3], the Activity was 98.07%.

With `CCCOn1cc(Cc2ccncc2Cl)c2ccccc21`, in data set [1], the EC50 is greater than 10 µM. For the same molecule, in the data set on HEK-293T [2], the CC50 was greater than 30 µM. Further, the values for the Activity (in data set [3]; in the data set with HEK-293T [4]) were 65.67% and 67.37%, respectively.

With `COC(=O)c1ccccc1NC(=O)CC1CNc2ccccc21` (stereo not given), in data set [1], the EC50 is greater than 10 µM. Moreover, in the data set on HEK-293T [2], the CC50 was greater than 30 µM. For the same molecule, the Activity was determined as 82.96% in data set [3] and 71.46% in the data set on HEK-293T [4].

As for `COn1cc(CC(=O)Nc2cccc(Cl)c2)c2ccccc21`, the EC50 in data set [1] was greater than 10 µM. Further, the CC50 in the data set on HEK-293T [2] was greater than 30 µM. The figures for the Activity (in data set [3]; with HEK-293T [4]) were 113% and 61.02%, respectively.

On to `O=C(Cc1cn(OC(=O)c2ccccc2)c2ccccc12)Nc1ccccc1Cl`, for which, in data set [1], the EC50 was greater than 10 µM. For the same molecule, in the data set with HEK-293T [2], the CC50 came to 29.4 µM. In addition, the Activity in data set [3] is on record as 113.06%.

Turning to `COc1ccc(COn2cc(CC(=O)Nc3ccccc3Cl)c3ccccc32)cc1`, the EC50 in data set [1] was greater than 10 µM. Besides, the CC50 in the data set with HEK-293T [2] is 20.3 µM. In addition, the Activity in data set [3] is 73.2%.

For `COn1cc(CC(=O)Nc2ccccc2)c2ccccc21`, the EC50 in data set [1] was greater than 10 µM. Further, the CC50 in the data set on HEK-293T [2] turned out to be 28 µM. Besides, in data set [3], the Activity turned out to be 113.22%.

As to `CCCCCCCCCCOn1cc(CC(=O)Nc2ccccc2Cl)c2ccccc21`, in data set [1], the EC50 was greater than 10 µM. For the same molecule, the CC50 in the data set with HEK-293T [2] is greater than 30 µM. Further, the Activity in data set [3] was 97.73%; with HEK-293T [4], 52.8%.

`COn1cc(CC(=O)Nc2ccccc2C)c2ccccc21`: the EC50 in data set [1] is greater than 10 µM. The CC50 in the data set on HEK-293T [2] was greater than 30 µM. Also, the values for the Activity (in data set [3]; in the data set with HEK-293T [4]) were 53.31% and 62.74%, respectively.

Turning to `CCCCCCCCCOn1cc(CC(=O)Nc2ccccc2Cl)c2ccccc21`, the EC50 in data set [1] is greater than 10 µM. For the same molecule, the CC50 in the data set on HEK-293T [2] amounted to 28.9 µM. Besides, the Activity in data set [3] was 58.3%.

As for `COC(=O)c1ccccc1NC(=O)CCCc1cn(OC)c2ccccc12`, in data set [1], the EC50 is greater than 10 µM. The CC50 with HEK-293T [2] is greater than 30 µM. Also, the Activity came to 82.07% in data set [3] and 61.31% with HEK-293T [4].

On to `COn1cc(CC(=O)Nc2ccc(Cl)cc2)c2ccccc21`, for which the EC50 in data set [1] was greater than 10 µM. Besides, the CC50 in the data set on HEK-293T [2] was greater than 30 µM. The values for the Activity (in data set [3]; in the data set with HEK-293T [4]) were 103.55% and 51.01%, respectively.

Turning to `COC(=O)c1ccccc1NC(=O)Cc1cn(O)c2ccccc12`, in data set [1], the half-maximal effective concentration (EC50) was greater than 10 µM. Also, the CC50 in the data set with HEK-293T [2] is 24.6 µM. In addition, the Activity in data set [3] is 107.1%.

Source of the values: ChEMBL document CHEMBL4765253, “Discovery, synthesis, and optimization of an N-alkoxy indolylacetamide against HIV-1 carrying NNRTI-resistant mutations from the Isatis indigotica root” (Eur J Med Chem, 2020).
